Data as given in patent US8501680B2, “Antagonists against interaction of PF4 and RANTES” (RWTH Aachen, priority 2005, dated 2013).
Values belong to the sequence of their own block, whether it stands above or below them.

Tests used:
[1] = tested on: Mono Mac 6 cells on IL-1 activated HUVEC; arrest potentiated by RANTES and PF4; assay: Inhibition of monocyte arrest on activated endothelium under flow; format: cell-based, human; conditions: 6 μM peptide, 60 nM RANTES and PF4, 1.5 dyn/cm2, adherent cells after 4 minutes
Protocol: Endothelial cells from the human umbilical cord (HUVEC, human umbilical vein endothelial cells, PromoCell, Heidelberg) were cultured in endothelial cell growth medium (PromoCell, Heidelberg) and used after two to four passages.
Monocytic Mono Mac 6 cells (MM6, DSMZ) were cultured in RPMI 1640 medium (PAA Laboratories, Pasching, Austria) with the addition of 10% fetal calf serum, 2 mM L-glutamine (Biowhittaker), 1 mM sodium pyruvate, 50 μg/mL gentamycin and 9 μg/mL insulin (MM6 medium). The cells were sown with a density of 2×10^5/mL in 2 mL MM6 medium in 24-well plates and cultured at 37° C. in a humid atmosphere with 5% CO2 for 3 to 4 days before being used for experiments.
The interaction of monocytic Mono Mac 6 cells on activated endothelial cells was investigated.
Petri dishes with confluent HUVEC cells layers activated with IL-113 (Interleukin 1(3, Peprotech, 10 ng/mL, 12 hours) were placed in a flow chamber. Mono Mac 6 cells (0.5×10^6 cells/mL) were resuspended in balanced Hank solution (HBSS with 10 mM HEPES (Gibco BRL), pH 7.3, 0.5% bovine serum albumin (Serva)) and kept on ice. Five minutes before the experiment, Ca^2+ and Mg^2+ were added to the monocytic MM6 cells to yield a final concentration of 1 mM and 60 nM of the chemokines RANTES (Peprotech, Rocky Hill, N.J., USA) and PF4 (ChromaTec, Greifswald), respectively, and 6 μM of the polypeptides of the sequence SEQ ID NO: 2 according to formula (2), the sequence SEQ ID NO: 3 according to formula (3) or a control peptide of the sequence SEQ ID NO: 14 according to formula (14) and then heated up to 37° C. Cells pretreated in this way were then perfused over endothelial cells at 1.5 dyn/cm^2 on a microscope of model IX 50 from Olympus. The number of monocytes that were adherent due to the interaction with the endothelial cells was determined after 4 minutes in various fields by image analysis of photographs by a video camera (3CCD, JVC) and recorder. The data were analyzed as the mean (n=5)±standard deviation (p<0.02) in comparison with a control.

[2] = biological target: T1, interaction of RANTES and PF4 (Homo sapiens, UniProt P02776+P13501); assay: Plasmon resonance (Biacore) study of inhibition of RANTES binding to immobilized biotinylated PF4
T1 construct: made in house; host or cells: chemical synthesis (t-Boc solid phase peptide synthesis and native chemical ligation); no expression host
T1 sequence (P13501 24-91): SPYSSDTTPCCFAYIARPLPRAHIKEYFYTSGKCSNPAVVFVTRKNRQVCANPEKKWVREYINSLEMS
T1 sequence (P02776 32-101): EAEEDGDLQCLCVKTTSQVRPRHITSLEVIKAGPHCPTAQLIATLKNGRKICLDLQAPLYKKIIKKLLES
Protocol: The plasmon resonance studies were performed using HBS-EP buffer (10 mM HEPES, 150 mM NaCl, 0.005% Tween 20, pH 7.4).
Two flow cells of a Cl chip (Biacore AB, Uppsala, Sweden) were activated by injection of 50 μL ethyl(dimethylaminopropyl)carbodiimide/N-hydroxysuccinimide (0.2M/0.05M, Pierce) and then 20 μL streptavidine (0.2 mg/mL, Sigma-Aldrich) was perfused over the activated surface. The surface was next inactivated by four successive injections of 20 μL […] (1M, pH 8, Sigma-Aldrich).
Biotinylated human PF4 (bPF4) at the N-terminus was chemically synthesized by means of t-Boc-based solid phase peptide synthesis and native chemical ligation of PF4 (Dawson, P. E., Kent, S. B. (2000), Annu. Rev. Biochem. 69:923-960, Hackeng, T. M., Griffin, J. H., Dawson, P. E. (1999), Proc. Natl. Acad. Sci. USA, vol. 96, pp. 10068-10073). The bPF4 was immobilized on the dextran surface of a Cl sensor chip by injecting 200 μg/mL bPF4 into HBS-EP through one of the flow chambers and recorded 240 resonance units (RU). The second flow chamber was not treated with bPF4 and served as the reference.
Binding of RANTES (0.5 μM, recombinant human RANTES, Peprotech, Rocky Hill, N.J., USA) or RANTES (0.5 μM) that had been preincubated with various concentrations (0 μM, 10 μM and 100 μM) of the polypeptide of the sequence SEQ ID NO: 3 according to formula (3) in HBS-EP buffer overnight at room temperature to bPF4 was determined by injection of 15 μL of the respective peptide/RANTES mixture and observation of the binding for 180 seconds. The coupling was determined and the measurements were performed in a Biacore 2000 apparatus (Biacore AB) at a flow rate of 5 μL/min. Sensor grams of the RANTES binding were corrected using the BIAevaluation 3.0 software (Biacore AB) to correct for nonspecific background signals and equilibrium resonance units (RU) were determined for each injection.
In another experiment under the same conditions as those described for example 1, the binding of RANTES (0.5 μM) or RANTES (0.5 μM) that had been preincubated with 0 μM, 10 μM, 50 μM and 100 μM of the polypeptide of the sequence SEQ ID NO: 3 according to formula (3), SEQ ID NO: 2 according to formula (2) or a control peptide of the sequence SEQ ID NO: 14 according to formula (14) as given below: […]

[3] = tested on: atherosclerotic lesions in ApoE mice; assay: Mouse model of atherosclerosis (ApoE mice on high-fat diet); format: in vivo; conditions: 50 μg intraperitoneal three times a week for 12 weeks
Protocol: The model for artherosclerosis [sic; atherosclerosis] was 9- to 12-week-old female ApoE litter-mate mice (The Jackson Lab, Bar Harbor, Me., USA). The mice were fed a high-fat diet (21% fat, Altromin® C1061) for 12 weeks. During this period of time, two groups of mice received intraperitoneal injections of 50 μg of the polypeptide of the sequence SEQ ID NO: 15 according to formula (15), administered three times a week, as indicated below:
(n=7 mice) in saline solution. An untreated group of mice (n=12) was used as additional controls.
The mice were sacrificed for histological examination. […] Blood samples were taken at the beginning and end of the experimental nutrition period. The white blood cell count was determined by hemocytometry and the sera were collected, the cholesterol using the Infinity cholesterol kits (Thermo Electron, Melbourne, Australia).
The extent of the atherosclerosis was determined at the aortic route and on thoracoabdominal aorta by staining lipid deposits using Oil Red O staining (N. R. Veillard, B. Kwak, G. Pelli, F. Mulhaupt, R. W. James, A. E. Proudfoot, F. Mach, Antagonism of RANTES receptors reduces atherosclerotic plaque formation in mice. Circ. Res. 2004; 94:253-61) and quantified by means of computerized image analysis (Diskus software, Hilgers, Aachen). Areas of atherosclerotic lesions were determined in 5 μm transverse sections through the heart and aortic root. The determination was performed for each aortic root on the basis of lipid stained areas of six sections a distance of 50 μm apart. The areas of atherosclerotic lesions were divided by the total surface area of the valve of each section. The thoracoabdominal aorta was opened along the ventral midline and the areas of the lesions were stained in an en-face preparation using Oil Red-O staining. The proportional amount of lipid deposit was calculated by dividing the stained area by the total thoracoabdominal surface area.

Sequence: CKEYFYTSGKCSNPAVVFVTRC [SEQ ID NO: 2]
- inhibition of potentiation of monocyte arrest due to heterophilic interaction of RANTES and PF4 (in words) [1]: weaker

- reduction of binding of RANTES to immobilized PF4 ([2]; RANTES 0.5 μM preincubated overnight with peptide at 100 μM, Example 1): up to 35%
- inhibition of the interaction of RANTES and PF4 (in words) ([2]; RANTES 0.5 μM preincubated with 0, 10 and 100 μM peptide, Example 1): concentration-dependent inhibition
Sequence: CKEYFYTSGKSSNPGIVFITRC [SEQ ID NO: 3]
- inhibition of the interaction of RANTES and PF4 (comparison in words) ([2]; RANTES 0.5 μM preincubated with 10 μM, 50 μM and 100 μM peptide, Example 2): definitely more effective than the polypeptide of the sequence SEQ ID NO: 2
- inhibition of potentiation of monocyte arrest due to heterophilic interaction of RANTES and PF4 [1]: up to 80%

Sequence: CKEYFYTSSKSSNLAVVFVTRC [SEQ ID NO: 15]
- area of the aortic root showing plaque in relation to the total valve surface area [3]: significantly reduced
- macrophage content in the lesions [3]: significantly reduced
- development of atherosclerotic lesions in comparison with mice that received the control peptide ([3]; Oil Red O staining): significant reduction

Sequence: KEYFYTSGK [SEQ ID NO: 14, control peptide, reference compound]
- inhibition of the interaction of RANTES and PF4 (in words) ([2]; RANTES 0.5 μM preincubated with 100 μM peptide, Example 2): did not exhibit any detectable inhibition
- inhibition of potentiation of monocyte arrest due to heterophilic interaction of RANTES and PF4 (in words) [1]: no significant inhibition
